Test results published in PubChem BioAssay (NCI).
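Grown in 96-well plates, cells were treated for 48 hours with each compound at five concentrations. Insufficient inhibition: endpoint recorded as highest concentration tested. Here, GI50 denotes the concentration required for 50% inhibition of growth. TGI is the concentration that stops growth completely.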

What was measured:
Test in all cases: NCI tumour cell line growth inhibition, 48 h
A549 NSCLC = system: A549 NSCLC
K-562 leukemia = system: K-562 leukemia
LOX IMVI melanoma = system: LOX IMVI melanoma
OVCAR-5 ovarian = system: OVCAR-5 ovarian
ACHN renal = system: ACHN renal
MALME-3M melanoma = system: MALME-3M melanoma
HCT-116 colon = system: HCT-116 colon
RPMI-8226 leukemia = system: RPMI-8226 leukemia
SNB-19 CNS = system: SNB-19 CNS
OVCAR-3 ovarian = system: OVCAR-3 ovarian

With Cc1ccc(C[As+](c2ccccc2)(c2ccccc2)c2ccccc2)cc1 the GI50 (A549 NSCLC) was 0.588 µM, the TGI (A549 NSCLC) was 35.8 µM and the GI50 (K-562 leukemia) was 0.466 µM. For the same compound, the TGI (K-562 leukemia) was 21.9 µM, the GI50 (LOX IMVI melanoma) was 1.41 µM and the TGI (LOX IMVI melanoma) was 6.85 µM. The GI50 (OVCAR-5 ovarian) was 1.74 µM, the TGI (OVCAR-5 ovarian) was over 87.2 µM and the GI50 (ACHN renal) was 3.66 µM. For the same compound, the TGI (ACHN renal) was over 100 µM, the GI50 (MALME-3M melanoma) was 0.297 µM and the TGI (MALME-3M melanoma) was 11.6 µM. The GI50 (HCT-116 colon) was 0.645 µM, the TGI (HCT-116 colon) was over 36.2 µM and the GI50 (RPMI-8226 leukemia) was 0.218 µM. The TGI (RPMI-8226 leukemia) was 3.24 µM, the GI50 (SNB-19 CNS) was 0.978 µM and the TGI (SNB-19 CNS) was over 76.8 µM. The GI50 (OVCAR-3 ovarian) was 0.611 µM and the TGI (OVCAR-3 ovarian) was 13.9 µM.

Nc1[nH]nc2nc(-c3cc(Cl)ccc3Cl)cc(-c3ccc(F)cc3)c12 gave a GI50 (A549 NSCLC) of 22.9 µM, a TGI (A549 NSCLC) of 87.3 µM and a GI50 (K-562 leukemia) of 43.9 µM. The TGI (K-562 leukemia) was over 100 µM, the GI50 (LOX IMVI melanoma) was 19.3 µM and the TGI (LOX IMVI melanoma) was 38 µM. It also gave a GI50 (OVCAR-5 ovarian) of 24.3 µM, a TGI (OVCAR-5 ovarian) of 59.8 µM and a GI50 (ACHN renal) of 31.9 µM. The TGI (ACHN renal) was over 100 µM, the GI50 (MALME-3M melanoma) was 27.2 µM and the TGI (MALME-3M melanoma) was 59.3 µM. For the same compound, the GI50 (HCT-116 colon) was 18.9 µM, the TGI (HCT-116 colon) was 39.7 µM and the GI50 (RPMI-8226 leukemia) was 18.4 µM. The TGI (RPMI-8226 leukemia) was 50.5 µM, the GI50 (SNB-19 CNS) was 35.7 µM and the TGI (SNB-19 CNS) was over 100 µM. It also gave a GI50 (OVCAR-3 ovarian) of 24 µM and a TGI (OVCAR-3 ovarian) of 65.4 µM.

For CN1CCC2(CC1)N=C(SCC(=O)Nc1cnc3ccccc3c1)C(c1ccc(Br)cc1)=N2, the GI50 (A549 NSCLC) was 5.01 µM, the TGI (A549 NSCLC) was 17.4 µM and the GI50 (K-562 leukemia) was 1.89 µM. It also gave a TGI (K-562 leukemia) of 5.05 µM, a GI50 (LOX IMVI melanoma) of 1.66 µM and a TGI (LOX IMVI melanoma) of 3.11 µM. For the same compound, the GI50 (OVCAR-5 ovarian) was 2.43 µM, the TGI (OVCAR-5 ovarian) was 7.33 µM and the GI50 (ACHN renal) was 1.7 µM. It also gave a TGI (ACHN renal) of 3.39 µM, a GI50 (MALME-3M melanoma) of 1.78 µM and a TGI (MALME-3M melanoma) of 3.36 µM. It also gave a GI50 (HCT-116 colon) of 1.77 µM, a TGI (HCT-116 colon) of 3.16 µM and a GI50 (RPMI-8226 leukemia) of 2.12 µM. For the same compound, the TGI (RPMI-8226 leukemia) was 4.9 µM, the GI50 (SNB-19 CNS) was 2.58 µM and the TGI (SNB-19 CNS) was 7.83 µM. The GI50 (OVCAR-3 ovarian) was 3.29 µM and the TGI (OVCAR-3 ovarian) was 12 µM.

For CCCCC(=O)N(c1ccc(Nc2c3ccccc3nc3cc([N+](=O)[O-])ccc23)cc1)S(C)(=O)=O, the GI50 (A549 NSCLC) was 1.99 µM, the TGI (A549 NSCLC) was 62.2 µM and the GI50 (K-562 leukemia) was 5.16 µM. It also gave a TGI (K-562 leukemia) of over 47.4 µM, a GI50 (LOX IMVI melanoma) of 3.05 µM and a TGI (LOX IMVI melanoma) of 17.4 µM. For the same compound, the GI50 (OVCAR-5 ovarian) was 77.6 µM, the TGI (OVCAR-5 ovarian) was over 100 µM and the GI50 (ACHN renal) was 3.85 µM. For the same compound, the TGI (ACHN renal) was over 88.7 µM, the GI50 (MALME-3M melanoma) was 14.3 µM and the TGI (MALME-3M melanoma) was 34.8 µM. It also gave a GI50 (HCT-116 colon) of 3.78 µM, a TGI (HCT-116 colon) of 19.8 µM and a GI50 (RPMI-8226 leukemia) of 2.68 µM. The TGI (RPMI-8226 leukemia) was 14.3 µM, the GI50 (SNB-19 CNS) was 7.39 µM and the TGI (SNB-19 CNS) was over 100 µM. The GI50 (OVCAR-3 ovarian) was 14.2 µM and the TGI (OVCAR-3 ovarian) was 66.6 µM.

For O=C1C=C(NCCO)c2nccc3c2c1nc1ccccc13, the GI50 (A549 NSCLC) was 16.4 µM, the TGI (A549 NSCLC) was over 100 µM and the GI50 (K-562 leukemia) was 31.5 µM. It also gave a TGI (K-562 leukemia) of over 100 µM, a GI50 (LOX IMVI melanoma) of 15.8 µM and a TGI (LOX IMVI melanoma) of 95 µM. For the same compound, the GI50 (OVCAR-5 ovarian) was 28.6 µM, the TGI (OVCAR-5 ovarian) was over 100 µM and the GI50 (ACHN renal) was 16.3 µM. For the same compound, the TGI (ACHN renal) was over 100 µM, the GI50 (MALME-3M melanoma) was 17.4 µM and the TGI (MALME-3M melanoma) was 49 µM. It also gave a GI50 (HCT-116 colon) of 11.5 µM, a TGI (HCT-116 colon) of 38.7 µM and a GI50 (RPMI-8226 leukemia) of 24.7 µM. It also gave a TGI (RPMI-8226 leukemia) of over 100 µM, a GI50 (SNB-19 CNS) of 34 µM and a TGI (SNB-19 CNS) of over 100 µM. For the same compound, the GI50 (OVCAR-3 ovarian) was 18.6 µM and the TGI (OVCAR-3 ovarian) was 52.6 µM.

With Cn1c(CCCC(=O)O)nc2cc(N(CCCl)CCCl)ccc21 the GI50 (A549 NSCLC) was over 100 µM, the TGI (A549 NSCLC) was over 100 µM and the GI50 (K-562 leukemia) was over 100 µM. The TGI (K-562 leukemia) was over 100 µM, the GI50 (LOX IMVI melanoma) was over 58.8 µM and the TGI (LOX IMVI melanoma) was over 100 µM. The GI50 (OVCAR-5 ovarian) was over 100 µM, the TGI (OVCAR-5 ovarian) was over 100 µM and the GI50 (ACHN renal) was over 77.3 µM. It also gave a TGI (ACHN renal) of over 100 µM, a GI50 (MALME-3M melanoma) of 49.6 µM and a TGI (MALME-3M melanoma) of over 100 µM. For the same compound, the GI50 (HCT-116 colon) was over 80.5 µM, the TGI (HCT-116 colon) was over 100 µM and the GI50 (RPMI-8226 leukemia) was over 85.3 µM. It also gave a TGI (RPMI-8226 leukemia) of over 100 µM, a GI50 (SNB-19 CNS) of 97.9 µM and a TGI (SNB-19 CNS) of over 100 µM. It also gave a GI50 (OVCAR-3 ovarian) of over 66.2 µM and a TGI (OVCAR-3 ovarian) of over 93.3 µM.

For C=CCn1c2ccccc2c2c3c(c4c5ccccc5n(CC=C)c4c21)C(=O)N(O)C3=O, the GI50 (A549 NSCLC) was 4.47 µM, the TGI (A549 NSCLC) was 55.4 µM and the GI50 (K-562 leukemia) was 3.89 µM. For the same compound, the TGI (K-562 leukemia) was 50 µM, the GI50 (LOX IMVI melanoma) was 0.967 µM and the TGI (LOX IMVI melanoma) was 2.43 µM. For the same compound, the GI50 (OVCAR-5 ovarian) was 5.29 µM, the TGI (OVCAR-5 ovarian) was 29.6 µM and the GI50 (ACHN renal) was 1.6 µM. It also gave a TGI (ACHN renal) of 3.89 µM, a GI50 (MALME-3M melanoma) of 6.91 µM and a TGI (MALME-3M melanoma) of 26.7 µM. It also gave a GI50 (HCT-116 colon) of 2.29 µM, a TGI (HCT-116 colon) of 12.5 µM and a GI50 (RPMI-8226 leukemia) of 2.51 µM. It also gave a TGI (RPMI-8226 leukemia) of 10.6 µM, a GI50 (SNB-19 CNS) of 4.18 µM and a TGI (SNB-19 CNS) of over 100 µM. It also gave a GI50 (OVCAR-3 ovarian) of 2.32 µM and a TGI (OVCAR-3 ovarian) of 8.07 µM.

Work on Cc1ccc(N)cc1[As]=[As]c1cc(N)ccc1C (stereo not given) yielded a GI50 (A549 NSCLC) of 4.36 µM, a TGI (A549 NSCLC) of 20 µM and a GI50 (K-562 leukemia) of 0.341 µM. For the same compound, the TGI (K-562 leukemia) was over 100 µM, the GI50 (LOX IMVI melanoma) was 1.47 µM and the TGI (LOX IMVI melanoma) was 2.88 µM. The GI50 (OVCAR-5 ovarian) was 2.07 µM, the TGI (OVCAR-5 ovarian) was 3.73 µM and the GI50 (ACHN renal) was 1.67 µM. For the same compound, the TGI (ACHN renal) was 3.26 µM, the GI50 (MALME-3M melanoma) was 0.679 µM and the TGI (MALME-3M melanoma) was 2.03 µM. It also gave a GI50 (HCT-116 colon) of 1.64 µM, a TGI (HCT-116 colon) of 3.15 µM and a GI50 (RPMI-8226 leukemia) of 1.07 µM. The TGI (RPMI-8226 leukemia) was 4.45 µM, the GI50 (SNB-19 CNS) was 1.68 µM and the TGI (SNB-19 CNS) was 3.24 µM. It also gave a GI50 (OVCAR-3 ovarian) of 1.62 µM and a TGI (OVCAR-3 ovarian) of 3.02 µM.

C[P+]1(Cc2ccccc2)CCCC1 gave a TGI (A549 NSCLC) of over 100 µM, a TGI (K-562 leukemia) of over 100 µM and a TGI (LOX IMVI melanoma) of over 100 µM. For the same compound, the TGI (OVCAR-5 ovarian) was over 100 µM, the TGI (ACHN renal) was over 100 µM and the TGI (MALME-3M melanoma) was over 100 µM. The TGI (HCT-116 colon) was over 100 µM, the TGI (RPMI-8226 leukemia) was over 100 µM and the TGI (SNB-19 CNS) was over 100 µM. For the same compound, the TGI (OVCAR-3 ovarian) was over 100 µM.
